Experimental findings from paper PMC12931196, “Vm–MSI: a Vancomycin–Antimicrobial Peptide Conjugate Combating Resistant Bacteria and Broadening the Antimicrobial Spectrum” (Advanced Science, 2025) are described below.

Structures are written as SMILES. In brackets after ≈: the same amount, converted by molar mass. Several values for one entry are separate records, joined by “and”; a condition that tells them apart may be missing. Equal values may be shown once.

One assay has as its system B. cereus CMCC63301. Description: MIC, 2 fold broth microdilution. Format: cell-based. To be noted: Bacillus cereus, MH broth, 37 °C, 18 h, OD600, read-out: MIC. The procedure: (§1) The 2 fold broth microdilution method was performed following previously established protocols.^[ [65], [66] ^] A total of 29 strains of human pathogenic microorganisms (11 Gram‐positive and 18 Gram‐negative) were included in the assay. Standard strains were maintained in our laboratory, and clinical isolates were obtained from the Fourth Affiliated Hospital of Soochow University. […] Gradient dilutions of the drugs (vancomycin, AMPs, and vancomycin‐AMP conjugates) were prepared in 96‐well plates, with 50 µL of each drug solution added per well. For the vancomycin and AMP mixture, 25 µL of vancomycin was combined with 25 µL of AMP at the corresponding monomer gradient concentration, resulting in a total volume of 50 µL. […] Following incubation, bacterial growth was assessed by measuring absorbance at 600 nm. The MIC was defined as the lowest concentration at which no bacterial growth was detected.
On the technique in general: Broth dilution looks for growth in wells or tubes with falling amounts of substance.

For the next assay, the system named is P. aeruginosa 52097. As to the kind of experiment: MIC, 2 fold broth microdilution. As to conditions: Pseudomonas aeruginosa, MH broth, 37 °C, 18 h, OD600, read-out: MIC. The format is cell-based. The procedure:
as §1

In a further assay the test system is P. aeruginosa 60357. As to the kind of experiment: MIC, 2 fold broth microdilution. To be noted: Pseudomonas aeruginosa, MH broth, 37 °C, 18 h, OD600, read-out: MIC. The format is cell-based. The method, then:
as §1

In a further assay the test system is P. aeruginosa CMCC10104. As to the kind of experiment: MIC, 2 fold broth microdilution. The format is cell-based. As to conditions: Pseudomonas aeruginosa, MH broth, 37 °C, 18 h, OD600, read-out: MIC. The procedure: as §1
The subject of a further assay is S. flexneri ATCC12022. As to the kind of experiment: MIC, 2 fold broth microdilution. Format: cell-based. As to conditions: Shigella flexneri, MH broth, 37 °C, 18 h, OD600, read-out: MIC. The method, then: as §1
In another assay the test system is S. flexneri CMCC51571. Description: MIC, 2 fold broth microdilution. The format is cell-based. As to conditions: Shigella flexneri, MH broth, 37 °C, 18 h, OD600, read-out: MIC. The procedure:
as §1

The subject of the next assay is S. typhimurium CICC21483. As to the kind of experiment: MIC, 2 fold broth microdilution. The format is cell-based. As to conditions: Salmonella enterica, MH broth, 37 °C, 18 h, OD600, read-out: MIC. The procedure:
as §1

Assay [1] has as its system V. parahemolyticus ATCC17802. Description: MIC, 2 fold broth microdilution. Format: cell-based. As to conditions: MH broth, 37 °C, 18 h, OD600, read-out: MIC. The method, then: as §1
Assay [2] relates to 29 bacterial strains (11 Gram‐positive, 18 Gram‐negative). Description: GM of the MICs across the 29 bacterial strains. Format: cell-based. To be noted: read-out: GM: Geometric mean of the MICs across the 29 bacterial strains. The method, then:
as §1

A further assay relates to S. aureus CMCC26003. Description: Antimicrobial resistance development assay. As to conditions: S. aureus CMCC26003 cultured at sub‐MIC. The format is cell-based.
The subject of a further assay is VRSA 52. Description: Mouse skin infection model. Format: in vivo, BALB/c mice.
Assay [3] deals with multidrug‐resistant A. baumannii. As to the kind of experiment: Mouse lung infection model. Format: in vivo, mice. As to conditions: single i.p. 5 mg kg^−1 at 0.5 h post‐infection; lung CFU after one day. The method, then: The experimental methods employed in this study were based on previously published literature.^[ [64] ^] 6–8 weeks old female mice weighing 18–20 g were selected for the study, and colonization was performed by administering 50 µL of a multidrug‐resistant A. baumannii strain (at a concentration of 1 × 10^7 CFU/mL) via tracheal intubation into the lungs of the mice for a duration of 0.5 h. After this period, an intraperitoneal injection of the drug at a dosage of 5 mg kg^−1 was administered. PBS served as a negative control, while ciprofloxacin was used as a positive control. After 24 h, the mice were euthanized, and their lung tissues were excised, homogenized, and diluted 10000 fold for colony counting. The lung tissue homogenate was then centrifuged to obtain the supernatant, which was further diluted 5 fold. The expression levels of inflammatory factors IL‐6 and TNF‐α in the supernatant were measured using an ELISA assay (ThermoFisher, US).

Assay [4] relates to VRSA 52, E. coli ATCC25922, and MDR P. aeruginosa 5. Description: Crystalline violet biofilm inhibition and eradication assays. As to conditions: 0.5-8 µM; three strains. Format: cell-based. The procedure: The mixture was incubated in a 96‐well plate for 48 h. Subsequent steps, including washing, fixation, staining, and OD measurement, were performed as described in the biofilm eradication assay.

Assay [5] deals with biofilm‐resident bacteria, including VRSA, E. coli, and MDR P. aeruginosa. Description: Biofilm resident bacteria assay. To be noted: 1-8 µM, 24 h.
A further assay concerns S. aureus ATCC29213. As to the kind of experiment: microbe, parasite or virus in culture. To be noted: Staphylococcus aureus, ATCC29213, 18 h.
Another assay deals with E. faecalis 2. Description: microbe, parasite or virus in culture. As to conditions: Enterococcus faecalis, 2, 18 h.
The next assay concerns E. coli CMCC44102. Description: microbe, parasite or virus in culture. To be noted: Escherichia coli, CMCC44102, 18 h.
For a further assay, the system named is K. pneumoniae 9883. Description: microbe, parasite or virus in culture. To be noted: Klebsiella pneumoniae, 9883, 18 h.
The next assay relates to P. aeruginosa ATCC27853. As to the kind of experiment: microbe, parasite or virus in culture. As to conditions: Pseudomonas aeruginosa, ATCC27853, 18 h.
A further assay concerns MDR P. aeruginosa 5. As to the kind of experiment: microbe, parasite or virus in culture. As to conditions: Pseudomonas aeruginosa, 18 h.

In the case of `CN[C@H](CC(C)C)C(=O)N[C@H]1C(=O)N[C@@H](CC(N)=O)C(=O)N[C@H]2C(=O)N[C@H]3C(=O)N[C@H](C(=O)N[C@H](C(=O)O)c4cc(O)cc(O)c4-c4cc3ccc4O)[C@H](O)c3ccc(c(Cl)c3)Oc3cc2cc(c3O[C@@H]2O[C@H](CO)[C@@H](O)[C@H](O)[C@H]2O[C@H]2C[C@](C)(N)[C@H](O)[C@H](C)O2)Oc2ccc(cc2Cl)[C@H]1O` [Vm, vancomycin], the MIC was 50.5 µM (≈ 73.2 µg/mL) with B. cereus CMCC63301; greater than 67.3 µM with P. aeruginosa 52097; greater than 67.3 µM in the assay on P. aeruginosa 60357; greater than 67.3 µM with P. aeruginosa CMCC10104; 50.5 µM (≈ 73.2 µg/mL) in the assay on S. flexneri ATCC12022; greater than 67.3 µM in the assay with S. flexneri CMCC51571. For the same molecule, the MIC in the assay on S. typhimurium CICC21483 was greater than 67.3 µM; in assay [1], 50.5 µM (≈ 73.2 µg/mL); in assay [2], 55.1 µM (≈ 79.8 µg/mL); against S. aureus ATCC29213, 3.16 µM and 4.69 µg/mL; against E. faecalis 2, greater than 67.3 µM; in the assay on E. coli CMCC44102, greater than 67.3 µM. For the same molecule, the MIC with K. pneumoniae 9883 was > 67.3 µM and > 100 µg/mL; in the assay on P. aeruginosa ATCC27853, > 67.3 µM and > 100 µg/mL; against MDR P. aeruginosa 5, greater than 67.3 µM. Also, in the assay with S. aureus CMCC26003, the “change of MIC over 20 generations” value was “four‐fold increase”. Besides, the “reduction in bacterial count within the wound” value in the assay on VRSA 52 (topical 2 mg kg^−1 at 6, 24 and 48 h post‐infection, VRSA 52 1 × 10^8 CFU mL^−1, wound CFU after 3 days) is recorded as “≈ 30%”. In addition, the “pro‐inflammatory cytokines TNF‐α and IL‐6 at the infection site” value in the assay with VRSA 52 (topical 2 mg kg^−1 ×3, ELISA of wound supernatant) is reported as “didn't effectively decrease”. In addition, in the assay with VRSA 52 (topical 2 mg kg^−1 ×3, observed to day 12), the skin wound healing entry was “remained unhealed”. In assay [3], the “lung‐colonizing bacteria eliminated” value is “no antibacterial activity”. Moreover, the “anti‐biofilm activity (inhibition and eradication)” value in assay [4] is “no noticeable anti‐biofilm activity”. Further, the “biofilm‐resident bactericidal effect” value in assay [5] is “no significant biofilm‐resident bactericidal effect”.
